Reference: patent US7183291B2 (Council of Scientific and Industrial Research, priority 1999, dated 2007)
Where “and” joins values, the source holds several entries; their conditions need not be identical. Equal entries are not always repeated.

Experiments:
[1] = system: developing oocysts of P. cynomolgi; assay: Effect on developing oocysts in An. stephensi mosquitoes (sporontocidal/oocysticidal action); type: in vivo; conditions: for % infectivity / No. of mosquitoes infected/dissected / oocyst number gut (Mean ± SD): Day 8 oocyst record
normal erythrocytes = assay: Reduced glutathione (GSH) in normal human erythrocytes after 3 h incubation; type: cell-based
Description: (§1) Drug induced haemolysis is a serious complication in persons deficient in G-6-PD enzyme. The presence of reduced glutathione (GSH) in erythrocytes control the level of oxidative metabolites. Therefore, drugs, which cause lesser oxidation of GSH level are safe. […] G-6-PD deficiency was detected by the fluorescent spot screening test and confirmed by the enzyme assay method. Heparinised blood samples were collected from each individual and after centrifugation, the packed cells were washed three times with cold saline. […] GSH levels were estimated by the method of Bentler et al [Improved Method for the Determination of Blood Glutathione, J. Lab.

[2] = Methaemoglobin levels in Beagle dogs after 7-day oral treatment; conditions: dog, in vivo, 1.25 mg/kg
Procedure: Colony bred beagle dogs were maintained in the kennel house of the Institute and fed with a standard diet.
Treatment was administered once daily for seven doses (day 0–6), the day of the first dose being day 0. […] 5 ml. blood was collected from beagle dogs on day 0, 3, 7, 13 and 25 using potassium-oxalate crystals as anticoagulant. All the estimations/tests were conducted on the same day of collection of blood. Methaemoglobin was assayed by the method of Evelyn and Malloy (1938, J. Biol. Chem., 126, 655–662).

[3] = system: P. cynomolgi B gametocytes; assay: Gametocytocidal test: infectivity of gametocytes from treated P. cynomolgi infected Rhesus monkeys to An. stephensi mosquitoes; type: in vivo
Procedure: For the gametocytocidal test, batches of 3–4 day old An. Stephensi were allowed to feed on P. cynomolgi infected Rhesus monkeys at appropriate gametocytaemia level. […] […] Mosquitoes were maintained as 26±1° C. under optimal insectary conditions. The infectivity rate and the oocyst counts were recorded on day 8. Mosquitoes were further maintained in the insectary to record the formation of sporozoites and the absence of sporozoites in some of the batches was also ensured by inoculation of mosquito homogenates into native monkeys.

sporozoites = assay: Infectivity test: mosquito homogenates inoculated into Rhesus monkeys; type: in vivo, P. cynomolgi; conditions: 11 batches; 1.87, 2.5, 3.75 and 5.00 mg base/kg; up to 60 days of observations
Procedure: For the gametocytocidal test, batches of 3–4 day old An. Stephensi were allowed to feed on P. cynomolgi infected Rhesus monkeys at appropriate gametocytaemia level. One hour after the control (pretreatment) feeding, compound of formula 1 was administered to the monkeys at 0.63, 1.25, 1.87, 2.5, 3.75 and 5.0 mg/kg in a single dose by oral route. Post-treatment feeding of batches of healthy mosquitoes was done at different times (5–48 hours). Mosquitoes were maintained as 26±1° C. under optimal insectary conditions. The infectivity rate and the oocyst counts were recorded on day 8. Mosquitoes were further maintained in the insectary to record the formation of sporozoites and the absence of sporozoites in some of the batches was also ensured by inoculation of mosquito homogenates into native monkeys.
Infectivity tests were carried out to ensure that there was no sporozoite development in the mosquito batches found negative for oocysts on day 8 following their feeding on drug treated monkeys. Homogenates of 40–50 mosquitoes each from 11 batches fed on gametocyte carrying monkeys treated with compound 1 at 1.87, 2.5, 3.75 and 5.00 mg base/kg were inoculated into native Rhesus monkeys.

[4] = system: G-6-PD deficient erythrocytes; assay: Reduced glutathione (GSH) in G-6-PD deficient human erythrocytes after 3 h incubation; type: cell-based; conditions: 25 and 50 μg/ml of PQ and equivalent doses, P<0.001
Description: as §1

[5] = age of infection 24 hr, 50 mg/kg
[6] = age of infection 48 hr, 10 mg/kg
[7] = age of infection 48 hr, 50 mg/kg
[8] = age of infection 72 hr, 10 mg/kg
[9] = age of infection 72 hr, 50 mg/kg
[10] = age of infection 96 hr, 50 mg/kg
[11] = age of infection in mosquitoes 24 hr, fed on monkey given 10 mg/kg at −7 hr
[12] = 0.63 mg/kg single dose, feeding +5 hr
[13] = 0.63 mg/kg single dose, feeding +24 hr
[14] = 0.63 mg/kg single dose, feeding +48 hr
[15] = 0.63 mg/kg single dose, feeding −1 hr (pre-treatment)
[16] = 1.25 mg/kg single dose, feeding +5 hr
[17] = 1.25 mg/kg single dose, feeding +24 hr
[18] = 1.25 mg/kg single dose, feeding +48 hr
[19] = 1.25 mg/kg single dose, feeding −1 hr (pre-treatment)
[20] = 1.87 mg/kg single dose, feeding +24 hr
[21] = 1.87 mg/kg single dose, feeding +48 hr
[22] = 1.87 mg/kg single dose, feeding −1 hr (pre-treatment)
[23] = 3.75 mg/kg single dose, feeding +4 hr
[24] = 3.75 mg/kg single dose, feeding +5 hr
[25] = 3.75 mg/kg single dose, feeding +24 hr
[26] = 3.75 mg/kg single dose, feeding −1 hr (pre-treatment)

concentration at which fall in GSH levels reached statistical significance (normal erythrocytes): 31250 ng/mL | GSH (mg %) Mean ± SE (normal erythrocytes; dose 1.25 μg/ml): 44.08 ± 5.80 mg % | GSH (mg %) Mean ± SE (normal erythrocytes; dose 6.25 μg/ml): 42.50 ± 5.85 mg % | increase of Met-Hb values [2]: 1.7 fold | decrease in GSH level compared to controls [4]: statistically significant | melting point: 118 to 120 °C
Structure (SMILES): COc1cc(NC(C)CCCN/C(C)=C2/CCOC2=O)c2ncccc2c1 (stereo not drawn) [compound 1, N^1-(3-ethylidinotetrahydrofuran-2-one)-N^4-(6-methoxy-8-quinolinyl)-1,4-pentanediamine]
sporontocidal/oocysticidal action on 24–96 hr old oocysts ([1]; 10–50 mg/kg): absence of sporontocidal/oocysticidal action | % infectivity [1, 5]: 85.19% | No. of mosquitoes infected/dissected [1, 5]: 23/27 | oocyst number gut (Mean ± SD) [1, 5]: 67.00 ± 43.58 | % infectivity [1, 6]: 100.0% | No. of mosquitoes infected/dissected [1, 6]: 20/20 | oocyst number gut (Mean ± SD) [1, 6]: 133.20 ± 96.22 | % infectivity [1, 7]: 78.79% | No. of mosquitoes infected/dissected [1, 7]: 26/33 | oocyst number gut (Mean ± SD) [1, 7]: 46.15 ± 36.70 | % infectivity [1, 8]: 88.00% | No. of mosquitoes infected/dissected [1, 8]: 22/25 | oocyst number gut (Mean ± SD) [1, 8]: 20.36 ± 17.81 | % infectivity [1, 9]: 86.21% | No. of mosquitoes infected/dissected [1, 9]: 25/29 | oocyst number gut (Mean ± SD) [1, 9]: 27.16 ± 20.60 | % infectivity [1, 10]: 69.23% | No. of mosquitoes infected/dissected [1, 10]: 18/26 | oocyst number gut (Mean ± SD) [1, 10]: 40.33 ± 27.38 | % infectivity [1, 11]: 85.00% | No. of mosquitoes infected/dissected [1, 11]: 17/20 | oocyst number gut (Mean ± SD) [1, 11]: 144.47 ± 60.35 | % infectivity [3, 12]: (45.1) % | No. of mosquitoes infected/dissected [3, 12]: 23/51 | Oocyst No. per gut (Mean ± SD) [3, 12]: 10.22 ± 6.8 | % infectivity [3, 13]: (32.61) % | No. of mosquitoes infected/dissected [3, 13]: 15/46 | Oocyst No. per gut (Mean ± SD) [3, 13]: 2.93 ± 2.4 | Parasitaemia/mm^3 Asexual [3, 13]: 30024 /mm^3 | Parasitaemia/mm^3 Gametocytes [3, 13]: 1404 /mm^3 | % infectivity [3, 14]: (0) % | No. of mosquitoes infected/dissected [3, 14]: 0/24 | Oocyst No. per gut (Mean ± SD) [3, 14]: Nil | Parasitaemia/mm^3 Asexual [3, 14]: 23220 /mm^3 | Parasitaemia/mm^3 Gametocytes [3, 14]: 756 /mm^3 | % infectivity [3, 15]: (90.0) % | No. of mosquitoes infected/dissected [3, 15]: 27/30 | Oocyst No. per gut (Mean ± SD) [3, 15]: 86.74 ± 39.2 | Parasitaemia/mm^3 Asexual [3, 15]: 48816 /mm^3 | Parasitaemia/mm^3 Gametocytes [3, 15]: 1728 /mm^3 | oocyst number and percent infectivity compared to control feedings at −1 hr ([3]; 0.63 mg/kg, +5 h and +24 h post-treatment): significant reduction | sporozoites in salivary gland dissections on day 15 ([3]; 0.63 mg/kg, batches fed +5 h and +24 h): presence of sporozoites | oocysts over the midguts ([3]; 0.63 mg/kg, mosquitoes fed at +48 hr): No oocysts were observed | monkeys with marked oocyst decrease at 4–5 hr and no oocysts or sporozoites in batches fed +24 hr and +48 hr ([3]; 1.25 mg/kg): 2/2 | No. of mosquitoes infected/dissected [3, 16]: 12/57 and 15/70 | Oocyst No. per gut (Mean ± SD) [3, 16]: 2.17 ± 1.7 and 2.60 ± 1.7 | % infectivity [3, 17]: (0) % | No. of mosquitoes infected/dissected [3, 17]: 0/36 and 0/30 | Oocyst No. per gut (Mean ± SD) [3, 17]: Nil | % infectivity [3, 18]: (0) % | No. of mosquitoes infected/dissected [3, 18]: 0/24 | Oocyst No. per gut (Mean ± SD) [3, 18]: Nil | Parasitaemia/mm^3 Asexual [3, 18]: 15914 /mm^3 | Parasitaemia/mm^3 Gametocytes [3, 18]: 109 /mm^3 | No. of mosquitoes infected/dissected [3, 19]: 34/38 and 20/47 | Oocyst No. per gut (Mean ± SD) [3, 19]: 22.35 ± 11.8 and 14.40 ± 7.29 | Parasitaemia/mm^3 Gametocytes [3, 19]: 1895 /mm^3 and 1026 /mm^3 | monkeys with marked oocyst decrease at 4–5 hr and no oocysts or sporozoites in batches fed +24 hr and +48 hr ([3]; 1.87 mg/kg): 2/2 | No. of mosquitoes infected/dissected ([3]; 1.87 mg/kg single dose, feeding +4 hr): 6/40 and 18/31 | % infectivity [3, 20]: (0) % | No. of mosquitoes infected/dissected [3, 20]: 0/27 and 0/38 | Oocyst No. per gut (Mean ± SD) [3, 20]: Nil and Nil** | Parasitaemia/mm^3 Gametocytes [3, 20]: 530 /mm^3 and 798 /mm^3 | % infectivity [3, 21]: (0) % | No. of mosquitoes infected/dissected [3, 21]: 0/24 and 0/21 | Oocyst No. per gut (Mean ± SD) [3, 21]: Nil | Parasitaemia/mm^3 Asexual [3, 21]: 7208 /mm^3 and 5130 /mm^3 | Parasitaemia/mm^3 Gametocytes [3, 21]: 212 /mm^3 and 228 /mm^3 | No. of mosquitoes infected/dissected [3, 22]: 25/30 and 23/25 | Parasitaemia/mm^3 Asexual [3, 22]: 33602 /mm^3 and 61560 /mm^3 | Parasitaemia/mm^3 Gametocytes [3, 22]: 1166 /mm^3 and 1026 /mm^3 | monkeys with oocyst development completely blocked in batches fed 4–5 hr and +24 hr post-treatment ([3]; 3.75 mg/kg): 5/5 | % infectivity [3, 23]: (0) % | No. of mosquitoes infected/dissected [3, 23]: 0/25 and 0/21 and 0/41 | Oocyst No. per gut (Mean ± SD) [3, 23]: Nil | % infectivity [3, 24]: (0) % | No. of mosquitoes infected/dissected [3, 24]: 0/30 | Oocyst No. per gut (Mean ± SD) [3, 24]: Nil** | % infectivity [3, 25]: (0) % | No. of mosquitoes infected/dissected [3, 25]: 0/28 and 0/21 and 0/30 and 0/27 | Oocyst No. per gut (Mean ± SD) [3, 25]: Nil and Nil** | No. of mosquitoes infected/dissected [3, 26]: 26/27 and 15/22 and 33/40 and 22/22 | Parasitaemia/mm^3 Asexual [3, 26]: 55728 /mm^3 and 45796 /mm^3 and 68320 /mm^3 and 48336 /mm^3 | monkeys with oocyst development completely blocked in batches fed 4–5 hr and +24 hr post-treatment ([3]; 5.0 mg/kg): 3/3 | time to render mature gametocytes non-infective to mosquitoes ([3]; 3.75 and 5.00 mg/kg): 4 to 5 h | sporozoites in salivary gland dissections, days 14–20 post infective blood meal ([3]; batches with blocked oocyst development (2.5, 3.75, 5.0 mg/kg)): did not show any sporozoites | monkeys developing infection after inoculation of homogenates of 40–50 mosquitoes from oocyst-negative batches (sporozoites): None
